Tests used:
Assay in all cases: relative viability (nuclei count vs DMSO), 5 days (fraction); higher = more cells survive
CAL-12T = test system: CAL-12T
How it was run: (§1)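 Medians of duplicate plates are given as relative viability. That measure is the nuclei count in treated wells divided by the count in vehicle wells. Counts were taken on 4× images of lung cancer cell lines in 1536-well plates, 5 days after pin-tool dosing the day after seeding with one drug alone or a fixed anchor-drug dose plus five library-drug doses (not always all listed) in √10 steps.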

COR-L 105 = test system: COR-L 105
How it was run: as §1

ChaGo-K-1 = test system: ChaGo-K-1
How it was run: as §1

EMC-BAC-2 = test system: EMC-BAC-2
How it was run: as §1

EPLC-272H = test system: EPLC-272H
How it was run: as §1

HCC-15 = test system: HCC-15
How it was run: as §1

HCC-78 = test system: HCC-78
How it was run: as §1

HOP-62 = test system: HOP-62
How it was run: as §1

LXF-289 = test system: LXF-289
How it was run: as §1

NCI-H1666 = test system: NCI-H1666
How it was run: as §1

NCI-H1755 = test system: NCI-H1755
How it was run: as §1

NCI-H1915 = test system: NCI-H1915
How it was run: as §1

NCI-H1975 = test system: NCI-H1975
How it was run: as §1

NCI-H2023 = test system: NCI-H2023
How it was run: as §1

NCI-H2085 = test system: NCI-H2085
How it was run: as §1

NCI-H2126 = test system: NCI-H2126
How it was run: as §1

NCI-H3122 = test system: NCI-H3122
How it was run: as §1

NCI-H322M = test system: NCI-H322M
How it was run: as §1

NCI-H358 = test system: NCI-H358
How it was run: as §1

NCI-H441 = test system: NCI-H441
How it was run: as §1

UMC-11 = test system: UMC-11
How it was run: as §1

CCN(CC)CCCCNc1ncc2cc(-c3cc(OC)cc(OC)c3)c(NC(=O)NC(C)(C)C)nc2n1 + CC(=O)Nc1cccc(-n2c(=O)n(C3CC3)c(=O)c3c(Nc4ccc(I)cc4F)n(C)c(=O)c(C)c32)c1 [Trametinib] (partner 0.02 µM) was tested. Which relative viability (CAL-12T; first compound 0.01 µM) did it give?
The relative viability was 0.3.

What about the relative viability (CAL-12T; first compound 0.03162 µM) of the same molecule?
Its relative viability is 0.338.

What about the relative viability (CAL-12T; first compound 0.1 µM) of the same molecule?
Its relative viability is 0.372.

And the relative viability (CAL-12T; first compound 0.3162 µM)?
Its relative viability is 0.261.

And the relative viability (CAL-12T; first compound 1 µM)?
Its relative viability is 0.333.

And the relative viability (COR-L 105; first compound 0.01 µM)?
Its relative viability is 0.417.

And the relative viability (COR-L 105; first compound 0.03162 µM)?
The relative viability was 0.406.

And the relative viability (COR-L 105; first compound 0.1 µM)?
The relative viability was 0.483.

And the relative viability (COR-L 105; first compound 0.3162 µM)?
The relative viability was 0.45.

What about the relative viability (COR-L 105; first compound 1 µM) of the same molecule?
Its relative viability is 0.451.

What about the relative viability (ChaGo-K-1; first compound 0.01 µM) of the same molecule?
The relative viability was 0.906.

What about the relative viability (ChaGo-K-1; first compound 0.03162 µM) of the same molecule?
The relative viability was 0.902.

What about the relative viability (ChaGo-K-1; first compound 0.1 µM) of the same molecule?
Its relative viability is 0.951.

What about the relative viability (ChaGo-K-1; first compound 0.3162 µM) of the same molecule?
Its relative viability is 0.962.

And the relative viability (ChaGo-K-1; first compound 1 µM)?
Its relative viability is 0.885.

What about the relative viability (EMC-BAC-2; first compound 0.03162 µM) of the same molecule?
The relative viability was 0.986.

What about the relative viability (EMC-BAC-2; first compound 0.1 µM) of the same molecule?
Its relative viability is 0.917.

What about the relative viability (EMC-BAC-2; first compound 0.3162 µM) of the same molecule?
The relative viability was 0.847.

And the relative viability (EMC-BAC-2; first compound 1 µM)?
The relative viability was 0.83.

And the relative viability (EPLC-272H; first compound 0.01 µM)?
Its relative viability is 0.263.

And the relative viability (EPLC-272H; first compound 0.1 µM)?
Its relative viability is 0.277.

And the relative viability (EPLC-272H; first compound 0.3162 µM)?
The relative viability was 0.281.

What about the relative viability (EPLC-272H; first compound 1 µM) of the same molecule?
Its relative viability is 0.215.

What about the relative viability (HCC-15; first compound 0.01 µM) of the same molecule?
The relative viability was 0.427.

What about the relative viability (HCC-15; first compound 0.03162 µM) of the same molecule?
Its relative viability is 0.367.

And the relative viability (HCC-15; first compound 0.1 µM)?
The relative viability was 0.414.

And the relative viability (HCC-15; first compound 0.3162 µM)?
The relative viability was 0.42.

And the relative viability (HCC-15; first compound 1 µM)?
Its relative viability is 0.361.

What about the relative viability (HCC-78; first compound 0.01 µM) of the same molecule?
Its relative viability is 0.874.

What about the relative viability (HCC-78; first compound 0.03162 µM) of the same molecule?
The relative viability was 0.685.

And the relative viability (HCC-78; first compound 0.1 µM)?
Its relative viability is 0.842.

What about the relative viability (HCC-78; first compound 0.3162 µM) of the same molecule?
Its relative viability is 0.819.

What about the relative viability (HCC-78; first compound 1 µM) of the same molecule?
The relative viability was 0.76.

What about the relative viability (HOP-62; first compound 0.01 µM) of the same molecule?
Its relative viability is 0.452.

And the relative viability (HOP-62; first compound 0.03162 µM)?
Its relative viability is 0.395.

What about the relative viability (HOP-62; first compound 0.1 µM) of the same molecule?
The relative viability was 0.398.

What about the relative viability (HOP-62; first compound 0.3162 µM) of the same molecule?
Its relative viability is 0.37.

And the relative viability (HOP-62; first compound 1 µM)?
Its relative viability is 0.339.

And the relative viability (LXF-289; first compound 0.01 µM)?
Its relative viability is 0.704.

What about the relative viability (LXF-289; first compound 0.03162 µM) of the same molecule?
Its relative viability is 0.703.

And the relative viability (LXF-289; first compound 0.1 µM)?
Its relative viability is 0.637.

What about the relative viability (LXF-289; first compound 0.3162 µM) of the same molecule?
The relative viability was 0.759.

What about the relative viability (LXF-289; first compound 1 µM) of the same molecule?
The relative viability was 0.644.

And the relative viability (NCI-H1666; first compound 0.01 µM)?
Its relative viability is 0.788.

And the relative viability (NCI-H1666; first compound 0.03162 µM)?
Its relative viability is 0.834.

And the relative viability (NCI-H1666; first compound 0.1 µM)?
Its relative viability is 0.93.

What about the relative viability (NCI-H1666; first compound 0.3162 µM) of the same molecule?
The relative viability was 0.973.

What about the relative viability (NCI-H1666; first compound 1 µM) of the same molecule?
Its relative viability is 0.875.

And the relative viability (NCI-H1755; first compound 0.01 µM)?
The relative viability was 0.83.

What about the relative viability (NCI-H1755; first compound 0.03162 µM) of the same molecule?
The relative viability was 0.776.

And the relative viability (NCI-H1755; first compound 0.1 µM)?
Its relative viability is 0.759.

What about the relative viability (NCI-H1755; first compound 0.3162 µM) of the same molecule?
Its relative viability is 0.827.

And the relative viability (NCI-H1755; first compound 1 µM)?
The relative viability was 0.55.

And the relative viability (NCI-H1915; first compound 0.01 µM)?
Its relative viability is 0.303.

And the relative viability (NCI-H1915; first compound 0.03162 µM)?
The relative viability was 0.294.

What about the relative viability (NCI-H1915; first compound 0.1 µM) of the same molecule?
The relative viability was 0.33.

What about the relative viability (NCI-H1915; first compound 0.3162 µM) of the same molecule?
Its relative viability is 0.249.

What about the relative viability (NCI-H1915; first compound 1 µM) of the same molecule?
Its relative viability is 0.233.

And the relative viability (NCI-H1975; first compound 0.01 µM)?
The relative viability was 0.328.

What about the relative viability (NCI-H1975; first compound 0.03162 µM) of the same molecule?
The relative viability was 0.314.

What about the relative viability (NCI-H1975; first compound 0.1 µM) of the same molecule?
Its relative viability is 0.345.

What about the relative viability (NCI-H1975; first compound 0.3162 µM) of the same molecule?
Its relative viability is 0.405.

And the relative viability (NCI-H1975; first compound 1 µM)?
Its relative viability is 0.348.

What about the relative viability (NCI-H2023; first compound 0.01 µM) of the same molecule?
The relative viability was 0.662.

What about the relative viability (NCI-H2023; first compound 0.03162 µM) of the same molecule?
Its relative viability is 0.551.

And the relative viability (NCI-H2023; first compound 0.1 µM)?
Its relative viability is 0.624.

What about the relative viability (NCI-H2023; first compound 0.3162 µM) of the same molecule?
The relative viability was 0.629.

What about the relative viability (NCI-H2023; first compound 1 µM) of the same molecule?
Its relative viability is 0.447.

And the relative viability (NCI-H2085; first compound 0.01 µM)?
The relative viability was 0.521.

And the relative viability (NCI-H2085; first compound 0.03162 µM)?
The relative viability was 0.682.

What about the relative viability (NCI-H2085; first compound 0.1 µM) of the same molecule?
Its relative viability is 0.496.

And the relative viability (NCI-H2085; first compound 0.3162 µM)?
Its relative viability is 0.469.

And the relative viability (NCI-H2085; first compound 1 µM)?
Its relative viability is 0.547.

What about the relative viability (NCI-H2126; first compound 0.01 µM) of the same molecule?
Its relative viability is 0.533.

What about the relative viability (NCI-H2126; first compound 0.03162 µM) of the same molecule?
Its relative viability is 0.578.

And the relative viability (NCI-H2126; first compound 0.1 µM)?
Its relative viability is 0.58.

What about the relative viability (NCI-H2126; first compound 0.3162 µM) of the same molecule?
The relative viability was 0.58.

What about the relative viability (NCI-H2126; first compound 1 µM) of the same molecule?
Its relative viability is 0.578.

What about the relative viability (NCI-H3122; first compound 0.01 µM) of the same molecule?
Its relative viability is 0.246.

And the relative viability (NCI-H3122; first compound 0.03162 µM)?
The relative viability was 0.229.

What about the relative viability (NCI-H3122; first compound 0.1 µM) of the same molecule?
Its relative viability is 0.226.

What about the relative viability (NCI-H3122; first compound 0.3162 µM) of the same molecule?
The relative viability was 0.239.

And the relative viability (NCI-H3122; first compound 1 µM)?
Its relative viability is 0.247.

And the relative viability (NCI-H322M; first compound 0.01 µM)?
The relative viability was 0.514.

And the relative viability (NCI-H322M; first compound 0.03162 µM)?
Its relative viability is 0.49.

And the relative viability (NCI-H322M; first compound 0.1 µM)?
Its relative viability is 0.436.

What about the relative viability (NCI-H322M; first compound 0.3162 µM) of the same molecule?
The relative viability was 0.339.

And the relative viability (NCI-H322M; first compound 1 µM)?
Its relative viability is 0.488.

What about the relative viability (NCI-H358; first compound 0.01 µM) of the same molecule?
The relative viability was 0.127.

And the relative viability (NCI-H358; first compound 0.03162 µM)?
Its relative viability is 0.15.

And the relative viability (NCI-H358; first compound 0.1 µM)?
The relative viability was 0.143.

And the relative viability (NCI-H358; first compound 0.3162 µM)?
The relative viability was 0.139.

And the relative viability (NCI-H358; first compound 1 µM)?
Its relative viability is 0.125.

And the relative viability (NCI-H441; first compound 0.01 µM)?
Its relative viability is 0.545.

And the relative viability (NCI-H441; first compound 0.03162 µM)?
Its relative viability is 0.506.

And the relative viability (NCI-H441; first compound 0.1 µM)?
The relative viability was 0.489.

And the relative viability (NCI-H441; first compound 0.3162 µM)?
The relative viability was 0.529.

And the relative viability (NCI-H441; first compound 1 µM)?
Its relative viability is 0.408.

And the relative viability (UMC-11; first compound 0.01 µM)?
Its relative viability is 0.686.

What about the relative viability (UMC-11; first compound 0.03162 µM) of the same molecule?
Its relative viability is 0.483.

And the relative viability (UMC-11; first compound 0.1 µM)?
The relative viability was 0.593.

And the relative viability (UMC-11; first compound 0.3162 µM)?
Its relative viability is 0.764.

And the relative viability (UMC-11; first compound 1 µM)?
The relative viability was 0.695.

Source: the supplement of paper PMC10307832
